Source: patent US7658916B2, “Methods of enhancing lysosomal storage disease therapy by modulation of cell surface receptor density” (Genzyme Corporation, priority 2002, dated 2010)

Tests used:
Conditions in all cases: separate experiment, FIG. 9
Hep 3B cells = assay: Alpha-galactosidase uptake by Hep3B cells (hepatocytes) in vitro; assay type: cell-based
Procedure: Muscles are the major target tissues for enzyme replacement therapy of Pompe disease due to the lack of acid alpha-glucosidase. To determine if the M6P/IGF-II receptor-mediated lysosomal enzyme uptake pathway can be augmented by insulin/glucose, the effects of insulin/glucose were analyzed on induced muscle cells (myotubes) in vitro. L6 myoblasts (or induced myotubes) and Hep3B cells were cultured in 6-well dishes. Rat L6 myoblasts (ATCC# CRL-1458) were cultured at 37° C. under 5% CO2 in VitaCell DMEM media (ATCC# 30-2002) with 4 mM L-glutamine, 10% fetal bovine serum (Gibco #16000-044) and 1× penicillin/streptomycin. Once confluent, cells were switched to VitaCell DMEM plus 2% horse sera (Gibco# 26050-088) and 1× penicillin/streptomycin. Media were changed every 3 days and at day 9-10, myotubes could be observed as multinuclear tubes. About 30-40% of the myoblasts formed myotubes. Cells were used for uptake assay at day 10. Hep3B cells were grown in MEM-eagle (Gibco# 11960-044) with 10% FBS, 1×NEAA, 1× sodium pyruvate and 1× penicillin/streptomycin.
Before the uptake assay, the cells were washed once with PBS and once with DMEM minus glucose media (Gibco#11966-025), then the cells were starved in 1.5 ml of DMEM minus glucose media for 1 hour at 37° C. […]

normal fibroblast cells = assay: Alpha-galactosidase uptake by normal fibroblasts in vitro; assay type: cell-based, human
Procedure: Before the uptake assay, the cells were washed once with PBS and once with DMEM minus glucose media (Gibco#11966-025), then the cells were starved in 1.5 ml of DMEM minus glucose media for 1 hour at 37° C. […] The lysates were assay for alpha-galactosidase activity with 4-MU-galactoside (Sigma #M-7633) as substrate and normalized to protein content.
Human skin fibroblasts (ATCC# CRL-1502) were grown at 37° C. under 5% CO2 in MEM with Earle's balanced salts, 2× essential and non-essential amino acids (NEAA) (Gibco# 11130-051, 11140-050) and vitamin (Gibco# 1120-052), 20% fetal bovine serum (Gibco# 16000-044, not heat-inactivated) plus 1× penicillin/streptomycin. The pH of the media was adjusted to approximately 7 with sodium bicarbonate (Gibco #25080-094).

Fabry fibroblast cells = assay: Alpha-galactosidase uptake by Fabry fibroblasts in vitro; assay type: cell-based
Procedure: Before the uptake assay, the cells were washed once with PBS and once with DMEM minus glucose media (Gibco#11966-025), then the cells were starved in 1.5 ml of DMEM minus glucose media for 1 hour at 37° C. After starvation, the cells were switched to uptake media (DMEM with or without glucose, plus 4 mg/ml BSA, 2.5 mM beta-glycerophosphate (Sigma #G-6376), 25 mM Hepes, pH 6.8. Insulin (Calbiochem, #40769), M6P (Sigma # M-6876) and 2 μg/ml recombinant human alpha-galactosidase (as a model protein because of its better M6P phosphylation) were added as indicated in FIGS. 7A and 7B. Uptake of enzyme was continued for 4 hours at 37° C. After uptake, the cells were washed twice with PBS containing 1 mM M6P and once with PBS, then lysed in alpha-galactosidase assay buffer (50 mM sodium citrate, […]) plus 1% Triton X-100 and protease inhibitors. The lysates were assay for alpha-galactosidase activity with 4-MU-galactoside (Sigma #M-7633) as substrate and normalized to protein content.
Human skin fibroblasts (ATCC# CRL-1502) were grown at 37° C. under 5% CO2 in MEM with Earle's balanced salts, 2× essential and non-essential amino acids (NEAA) (Gibco# 11130-051, 11140-050) and vitamin (Gibco# 1120-052), 20% fetal bovine serum (Gibco# 16000-044, not heat-inactivated) plus 1× penicillin/streptomycin. […]

insulin: Insulin (Calbiochem, #40769)
about 200%: alpha-galactosidase uptake by Hep 3B cells increased to (Hep 3B cells) | alpha-galactosidase uptake by normal fibroblast cells increased to (normal fibroblast cells) | alpha-galactosidase uptake by Fabry fibroblast cells increased to (Fabry fibroblast cells)
